From patent publication US20030144360A1, “Composition and method for modulating BAR/FXR receptor activity” (Allergan Sales, Inc., priority 2001, published 2003)
Several values for one entry are separate records, joined by “and”; a condition that tells them apart may be missing. Equal values may be shown once.

Experiments:
[1] = target: T1, BAR:RXR heterodimer (Homo sapiens, UniProt P19793+Q96RI1); assay: Mammalian two hybrid assay detecting recruitment of CoA; type: cell-based
T1 construct: expressed in transfected cells
T1 sequence (Q96RI1 1-486): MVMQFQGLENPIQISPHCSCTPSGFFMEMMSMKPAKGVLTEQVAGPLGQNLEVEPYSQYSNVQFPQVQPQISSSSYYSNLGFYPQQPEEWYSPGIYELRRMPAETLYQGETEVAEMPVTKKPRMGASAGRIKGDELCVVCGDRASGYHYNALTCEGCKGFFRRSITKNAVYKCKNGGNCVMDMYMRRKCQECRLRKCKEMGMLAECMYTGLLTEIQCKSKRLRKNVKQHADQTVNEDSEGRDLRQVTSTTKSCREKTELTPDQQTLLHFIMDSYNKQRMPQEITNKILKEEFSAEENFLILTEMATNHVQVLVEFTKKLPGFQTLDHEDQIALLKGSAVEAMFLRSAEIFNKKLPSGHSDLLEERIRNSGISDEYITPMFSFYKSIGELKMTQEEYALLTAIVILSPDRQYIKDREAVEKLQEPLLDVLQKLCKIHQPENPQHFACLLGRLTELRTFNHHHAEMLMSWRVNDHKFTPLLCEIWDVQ
T1 sequence (P19793 1-462): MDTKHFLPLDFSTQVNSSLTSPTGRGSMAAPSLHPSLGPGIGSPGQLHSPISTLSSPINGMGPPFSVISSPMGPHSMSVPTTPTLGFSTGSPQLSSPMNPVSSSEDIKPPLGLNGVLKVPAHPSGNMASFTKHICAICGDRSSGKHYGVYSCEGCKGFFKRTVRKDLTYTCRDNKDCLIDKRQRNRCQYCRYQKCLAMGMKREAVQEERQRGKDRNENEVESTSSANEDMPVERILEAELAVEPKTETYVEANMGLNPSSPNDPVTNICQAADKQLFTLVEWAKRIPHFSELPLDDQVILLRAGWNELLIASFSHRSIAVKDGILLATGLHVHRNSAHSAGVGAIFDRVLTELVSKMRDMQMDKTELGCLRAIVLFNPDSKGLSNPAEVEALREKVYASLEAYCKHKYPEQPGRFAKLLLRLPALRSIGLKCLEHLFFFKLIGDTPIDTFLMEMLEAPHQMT

[2] = target: T2, RFXRop / HRXRop (UniProt P19793+Q62735); assay: Co-transfection luciferase assay, EcRE × 6 reporter, RFXRop + HRXRop;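 further: CV-1 monkey cells transiently transfected with receptor expression vectors, reporter construct and β-galactosidase internal control, exposed to compound about 40 h, then luciferase chemiluminescence read by luminometer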
T2 sequence (Q62735 1-469): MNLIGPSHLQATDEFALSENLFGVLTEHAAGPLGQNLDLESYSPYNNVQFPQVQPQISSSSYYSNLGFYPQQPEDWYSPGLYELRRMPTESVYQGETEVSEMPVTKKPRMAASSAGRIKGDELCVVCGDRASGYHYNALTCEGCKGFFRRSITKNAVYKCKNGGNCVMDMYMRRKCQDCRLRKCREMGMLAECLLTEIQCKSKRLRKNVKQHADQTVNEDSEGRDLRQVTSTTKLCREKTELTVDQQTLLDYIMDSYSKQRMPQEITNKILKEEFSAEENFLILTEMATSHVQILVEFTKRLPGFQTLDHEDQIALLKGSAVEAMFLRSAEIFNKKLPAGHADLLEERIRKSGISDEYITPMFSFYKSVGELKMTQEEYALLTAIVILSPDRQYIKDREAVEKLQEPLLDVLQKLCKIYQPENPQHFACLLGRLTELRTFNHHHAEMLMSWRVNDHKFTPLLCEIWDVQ
T2 sequence (P19793 1-462): T1 sequence (P19793 1-462)

[3] = target: T3, GAL-L-hRXRa (Homo sapiens, UniProt P19793); assay: Co-transfection luciferase assay, MH100 × 4 reporter, GAL-L-hRXRa alone
T3 sequence (P19793 203-462): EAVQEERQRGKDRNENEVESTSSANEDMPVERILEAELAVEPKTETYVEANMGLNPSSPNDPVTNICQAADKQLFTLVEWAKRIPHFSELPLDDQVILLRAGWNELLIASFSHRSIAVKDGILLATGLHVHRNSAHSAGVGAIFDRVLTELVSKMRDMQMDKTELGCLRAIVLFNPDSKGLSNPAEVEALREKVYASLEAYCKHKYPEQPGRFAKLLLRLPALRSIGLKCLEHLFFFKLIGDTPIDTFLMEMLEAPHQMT

- recruitment of CoA [1]: inhibits recruitment
- Fold Activation ([2]; 0.1 μM LG268 + 0.01 μM AGN 34): 18.59 fold
- Reporter Activity ([2]; 0.1 μM LG268 + 0.01 μM AGN 34): 5.24
- Fold Activation ([2]; 0.1 μM LG268 + 0.1 μM AGN 34): 1.55 fold
- Reporter Activity ([2]; 0.1 μM LG268 + 0.1 μM AGN 34): 0.44
- Fold Activation ([2]; 0.1 μM LG268 + 1 μM AGN 34): 0.88 fold
- Reporter Activity ([2]; 0.1 μM LG268 + 1 μM AGN 34): 0.25
- Fold Activation ([2]; 0.1 μM LG268 + 3 μM AGN 34): 0.92 fold
- Reporter Activity ([2]; 0.1 μM LG268 + 3 μM AGN 34): 0.26
- Fold Activation ([2]; 0.1 μM LG268 + 10 μM AGN 34): 0.90 fold
- Reporter Activity ([2]; 0.1 μM LG268 + 10 μM AGN 34): 0.25
- Fold Activation ([2]; 10 μM AGN 34 alone): 0.84 fold and 1.02 fold
- Reporter Activity ([2]; 10 μM AGN 34 alone): 0.27 and 0.29
- Fold Activation ([2]; 50 μM CDCA + 0.01 μM AGN 34): 9.03 fold
- Reporter Activity ([2]; 50 μM CDCA + 0.01 μM AGN 34): 2.92
- Fold Activation ([2]; 50 μM CDCA + 0.1 μM AGN 34): 6.32 fold
- Reporter Activity ([2]; 50 μM CDCA + 0.1 μM AGN 34): 2.05
- Fold Activation ([2]; 50 μM CDCA + 1 μM AGN 34): 3.94 fold and 4.99 fold
- Reporter Activity ([2]; 50 μM CDCA + 1 μM AGN 34): 1.28
- Fold Activation ([2]; 50 μM CDCA + 3 μM AGN 34): 3.04 fold
- Reporter Activity ([2]; 50 μM CDCA + 3 μM AGN 34): 0.98
- Fold Activation ([2]; 50 μM CDCA + 10 μM AGN 34): 3.94 fold
- Reporter Activity ([2]; 50 μM CDCA + 10 μM AGN 34): 1.28
- Fold Activation ([3]; 0.1 μM LG268 + 0.01 μM AGN 34): 33.56 fold
- Reporter Activity ([3]; 0.1 μM LG268 + 0.01 μM AGN 34): 11.17
- Fold Activation ([3]; 0.1 μM LG268 + 0.1 μM AGN 34): 8.61 fold
- Reporter Activity ([3]; 0.1 μM LG268 + 0.1 μM AGN 34): 2.86
- Fold Activation ([3]; 0.1 μM LG268 + 1 μM AGN 34): 1.07 fold
- Reporter Activity ([3]; 0.1 μM LG268 + 1 μM AGN 34): 0.36
- Fold Activation ([3]; 0.1 μM LG268 + 3 μM AGN 34): 1.05 fold
- Reporter Activity ([3]; 0.1 μM LG268 + 3 μM AGN 34): 0.35
- Fold Activation ([3]; 0.1 μM LG268 + 10 μM AGN 34): 0.98 fold
- Reporter Activity ([3]; 0.1 μM LG268 + 10 μM AGN 34): 0.33
- Fold Activation ([3]; 10 μM AGN 34 alone): 1.14 fold and 1.12 fold
- Reporter Activity ([3]; 10 μM AGN 34 alone): 0.38 and 0.37
- Fold Activation ([3]; 50 μM CDCA + 0.01 μM AGN 34): 1.03 fold
- Reporter Activity ([3]; 50 μM CDCA + 0.01 μM AGN 34): 0.34
- Fold Activation ([3]; 50 μM CDCA + 0.1 μM AGN 34): 0.92 fold
- Reporter Activity ([3]; 50 μM CDCA + 0.1 μM AGN 34): 0.31
- Reporter Activity ([3]; 50 μM CDCA + 1 μM AGN 34): 0.37
- Fold Activation ([3]; 50 μM CDCA + 3 μM AGN 34): 1.05 fold
- Reporter Activity ([3]; 50 μM CDCA + 3 μM AGN 34): 0.35
- Fold Activation ([3]; 50 μM CDCA + 10 μM AGN 34): 1.10 fold
- Reporter Activity ([3]; 50 μM CDCA + 10 μM AGN 34): 0.37
Compound: CCCCCCOc1c(\C(C)=C/C=C/C(C)=C/C(=O)O)cc(C(C)C)cc1C(C)C [AGN 34, (2E, 4E, 6Z)-7-(2-Hexyloxy-3,5-diisopropylphenyl)-3-methylocta-2,4,6-trienoic Acid]
